Values quoted from earlier work, collected in US20200337300A1, “GREASE-LIKE GEL FOR REPELLING INSECTS AND PREVENTING UNDESIRABLE BEHAVIOR IN HOOFED ANIMALS” (Pacific Tech Industries, Inc., priority 2010, published 2020).

Columns and labels:
[1] = pungency of the pure capsaicinoid
[2] = for solubility in organic solvents: most organic solvents

Compound	Scoville heat units [1]	solubility in organic solvents [2]	solubility in water [2]
COc1cc(CNC(=O)CCCCC/C=C/C(C)C)ccc1O [Homocapsaicin]	8,600,000 Scoville heat units	–	–
COc1cc(CNC(=O)CCCC/C=C/C(C)C)ccc1O [Capsaicin, 8-methyl-N-vanillyl-6-nonenamide]	16,000,000 Scoville heat units	–	–
COc1cc(CNC(=O)CCCCCCCC(C)C)ccc1O [Homodihydrocapsaicin]	8,600,000 Scoville heat units	–	–
C=CCN=C=S [Allyl isothiocyanate]	–	soluble in most organic solvents	slightly soluble in water
C=CCS[S+]([O-])CC=C (stereo not shown) [allicin]	–	soluble in most organic solvents	slightly soluble in water
